Test results: ChEMBL document CHEMBL1158129, “Cyclic heptapeptides from the Jamaican sponge Stylissa caribica” (J Nat Prod, 2006)
Converted amounts (≈) assume the structure as drawn. The source made the active and inactive calls. The calls are words filed in the database; no cut-off is given here. Peptide text beside a SMILES is read from it.

What was measured:
[1] = test system: Candida albicans; assay: Antifungal activity against Candida albicans; type: functional, organism-based
[2] = test system: Cryptococcus neoformans; assay: Antifungal activity against Cryptococcus neoformans; type: functional, organism-based
[3] = test system: Staphylococcus aureus; assay: Antibacterial activity against Staphylococcus aureus; type: functional, organism-based
[4] = test system: Pseudomonas aeruginosa; assay: Antibacterial activity against Pseudomonas aeruginosa; type: functional, organism-based
[5] = test system: Mycobacterium intracellulare; assay: Antibacterial activity against Mycobacterium intracellular; type: functional, organism-based
[6] = test system: Aspergillus fumigatus; assay: Antifungal activity against Aspergillus fumigatus; type: functional, organism-based
[7] = test system: Plasmodium falciparum; assay: Antimalarial activity against Plasmodium falciparum D6; type: functional, organism-based
[8] = test system: Plasmodium falciparum; assay: Antimalarial activity against Plasmodium falciparum W2; type: functional, organism-based
[9] = test system: Mycobacterium tuberculosis; assay: Antimycobacterial activity against Mycobacterium tuberculosis; type: functional, organism-based
[10] = test system: Microglia; assay: Antiinflammatory activity against rat neonatal microglia; type: functional, cell-based
[11] = test system: Human immunodeficiency virus 1; assay: Antiviral activity against HIV1 in human PBM cells; type: functional, organism-based
[12] = test system: Mycobacterium tuberculosis; assay: Antimycobacterial activity against Mycobacterium tuberculosis at 128 ug/mL; type: functional
[13] = test system: Leishmania donovani; assay: Antileishmanial activity against Leishmania donovani; type: functional, organism-based
[14] = test system: Bel-7402; assay: Cytotoxicity against human Bel-7402; type: functional; conditions: read-out: ED50 (the source's name)

| SMILES | Activity [1] | Activity [2] | Activity [3] | Activity [4] | Activity [5] | Activity [6] | Activity [7] | Activity [8] | Activity [9] | Activity [10] | Activity [11] | IC50 [7] | inhibition at 128 µg/mL [12] | Activity [13] | EC50 [14] | IC50 [2] | Activity [12] |
| --- | --- | --- | --- | --- | --- | --- | --- | --- | --- | --- | --- | --- | --- | --- | --- | --- | --- |
| CC[C@H](C)[C@@H]1NC(=O)[C@@H]2CCCN2C(=O)[C@H](Cc2ccccc2)NC(=O)[C@@H]2CCCN2C(=O)[C@@H]2CCCN2C(=O)[C@H](Cc2ccc(O)cc2)NC(=O)[C@@H]2CCCN2C1=O (cyclo(FPIPYPP)) | inactive | inactive | inactive | inactive | inactive | inactive | inactive | inactive | inactive | inactive | inactive | – | – | – | – | – | – |
| CC[C@H](C)[C@@H]1NC(=O)[C@@H]2CCCN2C(=O)[C@H](Cc2ccc(O)cc2)NC(=O)[C@@H]2CCCN2C(=O)[C@H](CC(C)C)NC(=O)[C@@H]2CCCN2C(=O)[C@H](Cc2ccccc2)NC1=O (cyclo(FPLPYPI)) | inactive | inactive | inactive | inactive | inactive | inactive | inactive | inactive | inactive | inactive | inactive | – | – | – | – | – | – |
| Nc1ncc(/C=C/CNC(=O)c2cc(Br)c(Br)[nH]2)[nH]1 [OROIDIN] | – | inactive | – | – | – | – | – | – | – | – | inactive | 1.2 µg/mL (≈ 3.08 µM) | 71% | inactive | – | – | – |
| CC(C)C[C@@H]1NC(=O)[C@H]([C@@H](C)O)NC(=O)[C@@H]2CCCN2C(=O)CNC(=O)[C@H](Cc2ccccc2)NC(=O)[C@@H]2CCCN2C(=O)[C@H](Cc2c[nH]c3ccccc23)NC1=O [PHAKELLISTATIN 13] (cyclo(FGPTLWP)) | – | – | – | – | – | – | – | – | – | – | – | – | – | – | < 0.01 µg/mL | – | – |
| Nc1nc([C@H]2[C@H](CNC(=O)c3cc(Br)c[nH]3)[C@@H](CNC(=O)c3cc(Br)c[nH]3)[C@@H]2c2c[nH]c(N)n2)c[nH]1 [SCEPTRIN] | – | – | – | – | – | – | – | – | – | – | inactive | – | – | inactive | – | 3.5 µg/mL (≈ 5.64 µM) | inactive |
| Nc1ncc(C2=CCNC(=O)c3[nH]c(Br)c(Br)c32)[nH]1 [STEVENSINE] | – | inactive | – | – | – | – | – | – | – | – | inactive | 1.8 µg/mL (≈ 4.65 µM) | 95% | inactive | – | – | – |
